Drawing on ChEMBL document CHEMBL2073923, “Reversal of anticancer drug resistance by macrolide antibiotics in vitro and in vivo” (Clin Exp Pharmacol Physiol, 2000), this text covers Activity for five compounds.

Holding throughout (format): functional, cell-based
Series [1] has as its target T1, ATP-dependent translocase ABCB1 (Mus musculus, UniProt P21447). In words: TP_TRANSPORTER: intracellular accumulation in P388/S and P388/ADR cells.
Series [2] addresses T1, ATP-dependent translocase ABCB1. In words: TP_TRANSPORTER: inhibition of Cyclosporin A efflux (CsA: 0.005 uM, Clarithromycin: 100 uM) in P388/S and P388/ADR cells.
Series [3] shares this target. Briefly: TP_TRANSPORTER: inhibition of Vinblastine efflux (Vinblastine: 0.002 uM, Clarithromycin: 100 uM) in P388/S and P388/ADR cells.
The target is the same in series [4]. Briefly: TP_TRANSPORTER: inhibition of Vinblastine efflux (Vinblastine: 0.002 uM, YM17K: 100 uM) in P388/S and P388/ADR cells.
For series [5] the target is unchanged. Briefly: TP_TRANSPORTER: inhibition of Cyclosporin A efflux (CsA: 0.005 uM, YM17K: 100 uM) in P388/S and P388/ADR cells.
The target is the same in series [6]. In words: TP_TRANSPORTER: inhibition of Vinblastine efflux (Vinblastine: 0.002 uM, FK-506: 10 uM) in P388/S and P388/ADR cells.
For series [7] the target is unchanged. In words: TP_TRANSPORTER: inhibition of Cyclosporin A efflux (CsA: 0.005 uM, Josamycin: 100 uM) in P388/S and P388/ADR cells.
Series [8] has the same target. In words: TP_TRANSPORTER: inhibition of Vinblastine efflux (Vinblastine: 0.002 uM, Josamycin: 100 uM) in P388/S and P388/ADR cells.

T1 sequence (P21447 whole entry): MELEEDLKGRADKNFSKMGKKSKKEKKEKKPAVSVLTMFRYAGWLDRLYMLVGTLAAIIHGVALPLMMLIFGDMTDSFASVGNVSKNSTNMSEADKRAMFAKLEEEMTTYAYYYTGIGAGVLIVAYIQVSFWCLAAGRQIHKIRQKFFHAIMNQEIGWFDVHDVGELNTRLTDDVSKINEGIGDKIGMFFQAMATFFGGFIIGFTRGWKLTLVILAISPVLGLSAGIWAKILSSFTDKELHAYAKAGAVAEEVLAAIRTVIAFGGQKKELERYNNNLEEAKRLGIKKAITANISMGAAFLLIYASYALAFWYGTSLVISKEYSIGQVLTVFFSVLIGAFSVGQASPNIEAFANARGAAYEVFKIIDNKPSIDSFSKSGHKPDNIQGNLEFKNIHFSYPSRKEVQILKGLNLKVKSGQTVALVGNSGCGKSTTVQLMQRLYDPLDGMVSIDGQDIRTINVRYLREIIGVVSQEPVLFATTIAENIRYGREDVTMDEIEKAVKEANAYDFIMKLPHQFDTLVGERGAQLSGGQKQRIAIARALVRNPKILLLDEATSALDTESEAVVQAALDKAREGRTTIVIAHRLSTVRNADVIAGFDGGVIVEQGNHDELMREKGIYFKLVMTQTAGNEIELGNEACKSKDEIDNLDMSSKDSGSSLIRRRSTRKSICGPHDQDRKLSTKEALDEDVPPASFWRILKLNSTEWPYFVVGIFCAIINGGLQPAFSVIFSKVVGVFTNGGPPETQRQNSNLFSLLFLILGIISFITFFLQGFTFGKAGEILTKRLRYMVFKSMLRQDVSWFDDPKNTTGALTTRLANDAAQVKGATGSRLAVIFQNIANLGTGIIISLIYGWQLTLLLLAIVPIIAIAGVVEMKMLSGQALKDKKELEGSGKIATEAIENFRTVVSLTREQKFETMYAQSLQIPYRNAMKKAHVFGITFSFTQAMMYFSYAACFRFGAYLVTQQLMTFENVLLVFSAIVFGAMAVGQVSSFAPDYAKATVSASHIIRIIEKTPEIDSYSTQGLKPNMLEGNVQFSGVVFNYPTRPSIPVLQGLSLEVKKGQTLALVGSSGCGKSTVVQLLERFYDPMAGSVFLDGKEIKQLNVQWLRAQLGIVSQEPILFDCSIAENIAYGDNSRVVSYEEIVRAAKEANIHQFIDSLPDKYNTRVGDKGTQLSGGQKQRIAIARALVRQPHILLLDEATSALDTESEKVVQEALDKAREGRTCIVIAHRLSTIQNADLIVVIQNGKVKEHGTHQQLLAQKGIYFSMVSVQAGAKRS

As for `CC[C@]1(O)C[C@@H]2CN(CCc3c([nH]c4ccccc34)[C@@](C(=O)OC)(c3cc4c(cc3OC)N(C)[C@H]3[C@@](O)(C(=O)OC)[C@H](OC(C)=O)[C@]5(CC)C=CCN6CC[C@]43[C@@H]65)C2)C1` [VINBLASTINE], in series [1], the Activity entry is “substrate [+]”.

Turning to `CC[C@H]1OC(=O)[C@H](C)[C@@H](O[C@H]2C[C@@](C)(OC)[C@@H](O)[C@H](C)O2)[C@H](C)[C@@H](O[C@@H]2O[C@H](C)C[C@H](N(C)C)[C@H]2O)[C@](C)(OC)C[C@@H](C)C(=O)[C@H](C)[C@@H](O)[C@]1(C)O` [CLARITHROMYCIN], the figures for the Activity result in series [2] and in series [3] were “inhibitor [(at a rough estimate) 820 % of control]” and “inhibitor [(at a rough estimate) 250 % of control]”, respectively.

Regarding `CC[C@H]1OC(=O)CC[C@H](C)C(O[C@@H]2O[C@H](C)C[C@H](N(C)C)[C@H]2O)[C@@H](CC=O)C[C@@H](C)C(=O)/C=C/C(C)=C/[C@@H]1CO` (stereo partly drawn), the Activity result in series [4] was “inhibitor [(at a rough estimate) 200 % of control]”; in series [5] it was “inhibitor [(at a rough estimate) 710 % of control]”.

On to `C=CC[C@@H]1/C=C(\C)C[C@H](C)C[C@H](OC)[C@H]2O[C@@](O)(C(=O)C(=O)N3CCCC[C@H]3C(=O)O[C@H](/C(C)=C/[C@@H]3CC[C@@H](O)[C@H](OC)C3)[C@H](C)[C@@H](O)CC1=O)[C@H](C)C[C@@H]2OC` [TACROLIMUS ANHYDROUS], for which the Activity entry in series [6] is “inhibitor [(at a rough estimate) 230 % of control]”.

Turning to `CO[C@@H]1[C@@H](O[C@@H]2O[C@H](C)[C@@H](O[C@H]3C[C@@](C)(O)[C@@H](OC(=O)CC(C)C)[C@H](C)O3)[C@H](N(C)C)[C@H]2O)[C@@H](CC=O)C[C@@H](C)[C@@H](O)/C=C/C=C/C[C@@H](C)OC(=O)C[C@H]1OC(C)=O` [JOSAMYCIN], the Activity result in series [7] is “inhibitor [(at a rough estimate) 710 % of control]”; in series [8] it was “inhibitor [(at a rough estimate) 180 % of control]”.
